pEC50, pIC50: −log10 of the molar value. Like-named read-outs stand apart in the source and are kept apart here.
What was measured:
[1] = biological target: T1, cloned recombinant human HDAC-1 (Homo sapiens, UniProt Q13547); test: Human HDAC-1 enzyme inhibition, Assay 1 ([3H]-acetylated histone substrate, scintillation counting); assay type: biochemical; conditions: read-out: Human HDAC-1 IC50
T1 construct: made in house; host or cells: Baculovirus insect cell expression system
Procedure, shortened: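 Recombinant human HDAC-1 from baculovirus-infected insect cells, preincubated with compound 30 min at 4° C. before reaction. Released [3H]-acetic acid extracted with ethyl acetate and counted by scintillation. IC50 taken from dose-response curves as concentration giving half-maximal inhibition.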

HCT116 cells = test: MTT assay; assay type: cell-based; conditions: Homo sapiens, HCT-116, 72 h, HCT116 cells, 72 hours
Procedure, shortened: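 Cells plated one day before dosing, then exposed to compound 72 h at 37 °C, 5% CO2. MTT at 0.5 mg/ml final for 4 h, solubilized in DMF/SDS buffer pH 4.7; OD converted to cell number from a standard growth curve.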

[2] = system: acetylated histone H-4 in T24 human bladder cancer cells; test: Histone H4 acetylation in whole cells by immunoblots; assay type: cell-based; conditions: 16 h
Method: T24 human bladder cancer cells growing in culture were incubated with HDAC inhibitors for 16 h. […] of total histone protein was loaded onto SDS/PAGE and transferred to nitrocellulose membranes. Membranes were probed with polyclonal antibodies specific for acetylated histone H-4 (Upstate Biotech Inc.), followed by horse radish peroxidase conjugated secondary antibodies (Sigma). Enhanced Chemiluminescence (ECL) (Amersham) detection was performed using Kodak films (Eastman Kodak). Acetylated H-4 signal was quantified by densitometry.

[3] = T-24, Table 5E, read-out: H4 Ac (T24) EC50
[4] = T-24, Table 5F, read-out: H4 Ac (T24) EC50
[5] = T-24, Table 5b, read-out: H4Ac (T24) EC50

T1 sequence (Q13547 whole entry): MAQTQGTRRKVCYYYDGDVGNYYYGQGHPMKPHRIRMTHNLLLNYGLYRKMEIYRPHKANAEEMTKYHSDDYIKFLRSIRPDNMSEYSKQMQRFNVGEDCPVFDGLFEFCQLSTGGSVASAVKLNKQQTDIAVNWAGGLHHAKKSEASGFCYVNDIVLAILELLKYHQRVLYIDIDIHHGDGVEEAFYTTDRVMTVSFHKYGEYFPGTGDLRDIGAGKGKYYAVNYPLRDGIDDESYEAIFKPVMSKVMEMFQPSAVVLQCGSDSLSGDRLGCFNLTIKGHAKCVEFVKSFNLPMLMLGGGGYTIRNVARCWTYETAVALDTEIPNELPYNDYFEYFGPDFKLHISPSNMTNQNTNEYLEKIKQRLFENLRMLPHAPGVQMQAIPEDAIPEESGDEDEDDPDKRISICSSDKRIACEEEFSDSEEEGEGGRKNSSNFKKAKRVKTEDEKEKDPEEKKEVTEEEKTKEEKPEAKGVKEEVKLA

Row | pIC50 ([1]; Table 5F) | pIC50 (HCT116 cells; Table 5F) | pEC50 [2, 4] | SMILES | further results
1 | 5.70 | 5.30 | 5.52 | Nc1ccccc1NC(=O)c1ccc(CSc2ncc[nH]2)cc1 [Cpd 327, N-(2-Amino-phenyl)-4-(1H-imidazol-2-ylsulfanylmethyl)-benzamide] | –
2 | 5.52 | 5.70 | 6.00 | CCCCn1cnc2c(NCc3ccc(C(=O)Nc4ccccc4N)cc3)nc(N)nc21 [Cpd 330, 4-[(2-Amino-9-butyl-9H-purin-6-ylamino)-methyl]-N-(2-amino-phenyl)-benzamide] | –
3 | 6.40 | 6.00 | 5.30 | Nc1ccccc1NC(=O)c1ccc(CNc2nc(Cl)nc3[nH]cnc23)cc1 [Cpd 332, N-(2-Amino-phenyl)-4-[(2-chloro-9H-purin-6-ylamino)-methyl]-benzamide] | –
4 | 5.70 | 7.00 | 6.00 | CCCCn1cnc2c(NCc3ccc(C(=O)Nc4ccccc4N)cc3)nc(Cl)nc21 [Cpd 333, N-(2-Amino-phenyl)-4-[(9-butyl-2-chloro-9H-purin-6-ylamino)-methyl]-benzamide] | –
5 | 5.10 | 6.70 | 6.00 | Nc1ccccc1NC(=O)c1ccc(NCc2nc3ccccc3[nH]2)cc1 [Cpd 334] | –
6 | 6.00 | 6.40 | > 6.00 | Nc1ccccc1NC(=O)c1ccc(Cn2cnc3ccc(Cl)cc3c2=O)cc1 [Cpd 336] | –
7 | 5.52 | 6.22 | 6.00 | Cc1nc2ccccc2c(=O)n1Cc1ccc(C(=O)Nc2ccccc2N)cc1 [Cpd 337, N-(2-Amino-phenyl)-4-(2-methyl-4-oxo-4H-quinazolin-3-ylmethyl)-benzamide] | –
8 | 5.70 | 6.30 | 5.52 | COc1cc2ncn(Cc3ccc(C(=O)Nc4ccccc4N)cc3)c(=O)c2cc1OC [Cpd 338, N-(2-Amino-phenyl)-4-(6,7-dimethoxy-4-oxo-4H-quinazolin-3-ylmethyl)-benzamide] | –
9 | 5.70 | 6.00 | 6.00 | CN(C)CCn1c(=O)n(Cc2ccc(C(=O)Nc3ccccc3N)cc2)c(=O)c2ccccc21 [Cpd 340, N-(2-Amino-phenyl)-4-[1-(2-dimethylamino-ethyl)-2,4-dioxo-1,4-dihydro-2H-quinazolin-3-ylmethyl]-benzamide] | –
10 | 5.40 | 6.00 | 5.52 | Nc1ccccc1NC(=O)c1ccc(Cn2c(=O)c3ccccc3n(CCN3CCOCC3)c2=O)cc1 [Cpd 341] | –
11 | 5.52 | 6.40 | 6.00 | Cc1nc2ccc(Br)cc2c(=O)n1Cc1ccc(C(=O)Nc2ccccc2N)cc1 [Cpd 342, N-(2-Amino-phenyl)-4-(6-bromo-2-methyl-4-oxo-4H-quinazolin-3-ylmethyl)-benzamide] | –
12 | 6.30 | 6.52 | 6.00 | Nc1ccccc1NC(=O)c1ccc(Cn2c(=O)[nH]c3ccsc3c2=O)cc1 [Cpd 343, N-(2-Amino-phenyl)-4-(2,4-dioxo-1,4-dihydro-2H-thieno[3,2-d]pyrimidin-3-ylmethyl)-benzamide] | –
13 | 6.30 | 6.70 | 6.00 | CCn1c(=O)n(Cc2ccc(C(=O)Nc3ccccc3N)cc2)c(=O)c2cc(Br)ccc21 [Cpd 344, N-(2-Amino-phenyl)-4-(6-bromo-1-ethyl-2,4-dioxo-1,4-dihydro-2H-quinazolin-3-ylmethyl)-benzamide] | –

Continued, compound first:

Row | SMILES | pIC50 ([1]; Table 5F) | pIC50 (HCT116 cells; Table 5F) | pEC50 [2, 4] | further results
14 | Nc1ccccc1NC(=O)c1ccc(NCCc2ccc(F)cc2)nc1 [Cpd 174] | – | – | – | pIC50 ([1]; Table 5E): 5.40; pIC50 (HCT116 cells; Table 5E): 6.40; pEC50 [2, 3]: 5.30
15 | Nc1ccccc1NC(=O)c1ccc(NCc2ccc(F)cc2)nc1 [Cpd 175] | – | – | – | pIC50 ([1]; Table 5E): 5.40; pIC50 (HCT116 cells; Table 5E): 6.30; pEC50 [2, 3]: 5.52
16 | Nc1ccccc1NC(=O)c1ccc(CSc2nnc(-c3ccccc3)o2)cc1 [Cpd 177] | – | – | – | pIC50 ([1]; Table 5E): 6.00; pIC50 (HCT116 cells; Table 5E): 6.40; pEC50 [2, 3]: 6.00
17 | Nc1ccccc1NC(=O)c1ccc(Cn2c(=O)oc3ccccc3c2=O)cc1 [Cpd 179] | 6.00 | 6.52 | 6.00 | –
18 | CCC1(C)CC(=O)N(Cc2ccc(C(=O)Nc3ccccc3N)cc2)C(=O)C1 [Cpd 180] | 5.52 | 5.70 | 5.30 | –
19 | CCn1c(=O)n(Cc2ccc(C(=O)Nc3ccccc3N)cc2)c(=O)c2ccccc21 [Cpd 181] | 6.30 | 6.40 | 6.00 | –
20 | Nc1ccccc1NC(=O)c1ccc(-c2cccc(CNC3Cc4ccccc4C3)c2)cc1 [Cpd 186] | 5.70 | 5.70 | 5.70 | –
21 | Nc1ccccc1NC(=O)c1ccc(-c2cccc(CNCc3ccccn3)c2)cc1 [Cpd 187] | 5.70 | 5.30 | 5.70 | –
22 | COc1cc(NCc2ccc(-c3ccc(C(=O)Nc4ccccc4N)cc3)cc2)cc(OC)c1OC [Cpd 189, N-(2-Amino-phenyl)-4-[4-{(3,4,5-trimethoxy-phenylamino)-methyl}-phenyl]-benzamide] | 5.52 | 5.70 | 5.30 | –
23 | COc1ccc(NCc2ccc(-c3ccc(C(=O)Nc4ccccc4N)cc3)cc2)cc1 [Cpd 190, N-(2-Amino-phenyl)-4-[4-{(4-methoxy-phenylamino)-methyl}-phenyl]-benzamide] | 5.52 | 6.00 | < 5.30 | –
24 | COc1ccc(CNC2(C#Cc3ccc(C(=O)Nc4ccccc4N)cc3)CCCCC2)cc1 [Cpd 192] | 5.70 | 6.00 | 5.52 | –
25 | Nc1nc(NC2Cc3ccccc3C2)nc(OCc2ccc(C(=O)Nc3ccccc3N)cc2)n1 [Cpd 207] | – | – | – | pIC50 ([1]; Table 5b): 6.40; pIC50 (HCT116 cells; Table 5b): 6.22; pEC50 [2, 5]: 5.70
26 | Nc1ccccc1NC(=O)c1ccc(CNc2ncnc(NCCc3ccccc3)n2)cc1 [Cpd 210] | – | – | – | pIC50 ([1]; Table 5b): 5.52; pIC50 (HCT116 cells; Table 5b): 6.05; pEC50 [2, 5]: 6.00
27 | COc1nc(NCc2ccc(C(=O)Nc3ccccc3N)cc2)nc(OC)n1 [Cpd 212] | – | – | – | pIC50 ([1]; Table 5b): 5.52; pIC50 (HCT116 cells; Table 5b): 6.00; pEC50 [2, 5]: 6.00
28 | COc1nc(NCc2ccc(C(=O)Nc3ccccc3N)cc2)nc(NC2Cc3ccccc3C2)n1 [Cpd 214] | – | – | – | pIC50 ([1]; Table 5b): 5.52; pIC50 (HCT116 cells; Table 5b): 6.05; pEC50 [2, 5]: 6.00
29 | CN(Cc1ccc(C(=O)Nc2ccccc2N)cc1)c1nc(N)nc(NC2Cc3ccccc3C2)n1 [Cpd 216] | – | – | – | pIC50 ([1]; Table 5b): 6.30; pIC50 (HCT116 cells; Table 5b): 6.40; pEC50 [2, 5]: 5.70
30 | Nc1ccccc1NC(=O)c1ccc(CNc2nc3ccc(OCCN4CCOCC4)cc3s2)cc1 [Cpd 228] | 5.52 | 6.52 | 6.00 | –
31 | COc1ccc2nc(NCc3ccc(C(=O)Nc4ccccc4N)cc3)sc2c1 [Cpd 233] | 6.05 | 6.52 | 6.00 | –
32 | COCCn1cnc2c(NCc3ccc(C(=O)Nc4ccccc4N)cc3)nc(Cl)nc21 [Cpd 243] | 5.70 | 6.10 | 6.00 | –
33 | Cc1onc2c1c(=O)n(Cc1ccc(C(=O)Nc3ccccc3N)cc1)c1cccc(Cl)c21 [Cpd 247] | 5.52 | 6.22 | 5.70 | –
34 | Nc1ccccc1NC(=O)c1ccc(-c2ncc[nH]2)cc1 [Cpd 249] | 5.40 | 6.00 | 5.70 | –
35 | Nc1ccccc1NC(=O)c1ccc(Cc2nc(CN3CCOCC3)cs2)cc1 [Cpd 252] | 5.10 | 6.00 | 5.70 | –
36 | CCn1c(=O)n(Cc2ccc(C(=O)Nc3ccccc3N)cc2)c(=O)c2sccc21 [Cpd 255] | 5.70 | 6.10 | 6.00 | –
37 | Nc1ccccc1NC(=O)c1ccc(Cn2cnc3ccsc3c2=O)cc1 [Cpd 257] | 6.40 | 6.40 | 6.00 | –
38 | Nc1ccccc1NC(=O)c1ccc(CNc2nc(-c3ccc(Cl)cc3)cs2)cc1 [Cpd 321, N-(2-Amino-phenyl)-4-{[4-(4-chloro-phenyl)-thiazol-2-ylamino]-methyl}-benzamide] | 6.30 | 6.52 | 5.30 | –
39 | Nc1ccccc1NC(=O)c1ccc(CNc2nc3cc(Br)ccc3s2)cc1 [Cpd 322, N-(2-Amino-phenyl)-4-[(5-bromo-benzothiazol-2-ylamino)-methyl]-benzamide] | 6.15 | 6.40 | 5.70 | –
40 | COc1cc(NCc2ccc(-c3ccc(C(=O)Nc4ccccc4N)cc3)s2)cc(OC)c1OC [Cpd 323] | 6.00 | 6.22 | 6.00 | –
41 | Nc1ccccc1NC(=O)c1ccc(CSc2nc3ccc(NCc4cccnc4)cc3s2)cc1 [Cpd 325, N-(2-Amino-phenyl)-4-{6-[(pyridin-3-ylmethyl)-amino]-benzothiazol-2-ylsulfanylmethyl}-benzamide] | 6.52 | 6.00 | 5.70 | –
42 | Nc1ccccc1NC(=O)c1ccc(CSc2nc3ccc(NCc4ccccn4)cc3s2)cc1 [Cpd 326, N-(2-Amino-phenyl)-4-{6-[(pyridin-2-ylmethyl)-amino]-benzothiazol-2-ylsulfanylmethyl}-benzamide] | 6.00 | 6.00 | 5.52 | –
